Structures can show the parent of a compound that is named as a salt.
Experiments:
[1] = test system: CCI-induced cold hypersensitivity in Sprague Dawley rats; test: Chronic constriction injury (CCI)-induced neuropathic pain, acetone-induced cold hypersensitivity; format: in vivo; details: po; rat CCI; 10 mg/kg p.o.; 3 h post-dose; read-out: % Inhibition (acetone-evoked paw withdrawals)
From the text: Male Sprague Dawley rats (225-450 g; n=5-8/treatment) were used to evaluate the ability of selected compounds of the Formula (I) to reverse CCI-induced cold hypersensitivity. Four loose ligatures of 4-0 chromic gut were surgically placed around the left sciatic nerve under inhalation anesthesia as described by Bennett et al. (Bennett, G. J.; Xie, Y. K. Pain 1988, 33(1), 87-107). Fourteen to 35 days following CCI surgery, subjects were placed in elevated observation chambers containing wire mesh floors and five applications of acetone (0.05 mL/application separated by approximately 5 minutes) were spritzed onto the plantar surface of the paw using a multidose syringe. An abrupt withdrawal or lifting of the paw was considered a positive response. The number of positive responses was recorded for each rat over the five trials. Following baseline withdrawal determinations, compounds of Formula (I) are administered in an appropriate vehicle, such as hydroxypropyl-β-cyclodextrin ([…]), methylcellulose, Methocel, 10% Solutol, or H2O, or the like, by the appropriate route, i.p. or p.o. The number of withdrawals were redetermined 1 to 3 h after compound administration. Results are presented as a percent inhibition of shakes, which was calculated for each subject as [1−(test compound withdrawals/pre-test withdrawals)]×100 and then averaged by treatment.

[2] = test system: icilin-induced "wet-dog" shakes in Sprague Dawley rats; test: Reversal of icilin-induced "wet-dog" shakes in rats; format: in vivo; details: po; rat; 10 mg/kg p.o.; 1 h post-icilin
canine TRPM8 = target: T1, canine TRPM8 (Canis lupus familiaris, UniProt Q1A7N1); test: In vitro canine TRPM8 functional assay (icilin-induced intracellular Ca2+, FLIPR/FDSS);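 for all read-outs here: intracellular Ca2+ tracked with a Ca2+-sensitive fluorescent dye, compound applied 5 min before icilin was added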; format: cell-based; details: HEK293 cells stably expressing canine TRPM8; for inhibition at 0.2 µM: 0.200 μM compound, icilin challenge (~80% maximal response), read-out: % Inh. @ 0.200 μM; for IC50: icilin challenge, eight-point dose-response
T1 construct: expressed in transfected cells
T1 sequence (Q1A7N1 1-1104): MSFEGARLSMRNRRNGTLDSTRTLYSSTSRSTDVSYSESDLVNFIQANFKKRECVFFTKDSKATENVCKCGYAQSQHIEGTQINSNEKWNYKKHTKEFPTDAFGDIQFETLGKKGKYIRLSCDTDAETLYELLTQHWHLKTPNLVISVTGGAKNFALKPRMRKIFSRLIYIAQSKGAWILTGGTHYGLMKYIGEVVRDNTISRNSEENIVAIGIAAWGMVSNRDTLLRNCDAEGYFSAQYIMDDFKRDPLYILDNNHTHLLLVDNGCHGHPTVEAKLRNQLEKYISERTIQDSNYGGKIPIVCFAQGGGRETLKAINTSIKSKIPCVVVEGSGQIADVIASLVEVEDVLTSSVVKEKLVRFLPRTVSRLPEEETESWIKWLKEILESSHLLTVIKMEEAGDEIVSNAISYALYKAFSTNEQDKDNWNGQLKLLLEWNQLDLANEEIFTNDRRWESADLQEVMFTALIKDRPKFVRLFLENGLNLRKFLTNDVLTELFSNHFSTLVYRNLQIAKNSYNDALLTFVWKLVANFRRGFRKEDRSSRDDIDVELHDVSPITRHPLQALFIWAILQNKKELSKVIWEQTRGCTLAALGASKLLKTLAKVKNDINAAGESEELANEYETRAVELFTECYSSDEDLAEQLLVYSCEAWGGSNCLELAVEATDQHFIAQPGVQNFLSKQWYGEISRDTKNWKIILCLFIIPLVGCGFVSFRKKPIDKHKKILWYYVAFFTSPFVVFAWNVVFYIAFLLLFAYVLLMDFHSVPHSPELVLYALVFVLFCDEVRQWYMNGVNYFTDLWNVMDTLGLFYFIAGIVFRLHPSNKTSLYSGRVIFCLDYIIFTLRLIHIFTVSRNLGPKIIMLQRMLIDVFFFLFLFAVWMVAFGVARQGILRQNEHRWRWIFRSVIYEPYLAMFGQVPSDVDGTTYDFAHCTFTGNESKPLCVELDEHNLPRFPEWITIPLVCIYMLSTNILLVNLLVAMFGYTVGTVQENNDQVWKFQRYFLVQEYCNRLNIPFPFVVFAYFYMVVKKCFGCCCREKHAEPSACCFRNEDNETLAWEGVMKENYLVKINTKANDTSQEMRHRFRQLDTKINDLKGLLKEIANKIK

Compound	inhibition at 0.2 µM (canine TRPM8) [%]	IC50 (canine TRPM8) [nM]	inhibition in vivo at 10 mg/kg [1] [%]	inhibition in vivo at 10 mg/kg [2] [%]
FC(F)(F)c1ccccc1-c1ccc2nc(C3=NOC4(CCCCC4)C3)[nH]c2c1 [Cpd 1, 3-[5-(2-Trifluoromethyl-phenyl)-1H-benzimidazol-2-yl]-1-oxa-2-aza-spiro[4.5]dec-2-ene]	–	–	65	–
FC(F)(F)Oc1ccccc1-c1ccc2[nH]c(C3=NOC4(CCCCC4)C3)nc2c1 [Cpd 7, 3-[5-(2-Trifluoromethoxy-phenyl)-1H-benzimidazol-2-yl]-1-oxa-2-aza-spiro[4.5]dec-2-ene hydrochloride]	–	–	83	> 96
Fc1cccc(OC(F)(F)F)c1-c1ccc2[nH]c(C3=NOC4(CCCCC4)C3)nc2c1 [Cpd 8, 3-[5-(2-Fluoro-6-trifluoromethoxy-phenyl)-1H-benzimidazol-2-yl]-1-oxa-2-aza-spiro[4.5]dec-2-ene hydrochloride]	–	–	–	> 96
FC(F)(F)c1ccccc1-c1cc(Br)c2[nH]c(C3=NOC4(CCOCC4)C3)nc2c1 [Cpd 33, 3-[7-Bromo-5-(2-trifluoromethyl-phenyl)-1H-benzimidazol-2-yl]-1,8-dioxa-2-aza-spiro[4.5]dec-2-ene hydrochloride]	100	1.7	–	–
N#Cc1cc(-c2ccccc2C(F)(F)F)cc2nc(C3=NOC4(CCOCC4)C3)[nH]c12 [Cpd 35, 2-(1,8-Dioxa-2-aza-spiro[4.5]dec-2-en-3-yl)-6-(2-trifluoromethyl-phenyl)-3H-benzimidazole-4-carbonitrile hydrochloride]	100	5.2	–	–
CC1(C)CCC2(CC1)CC(c1nc3cc(-c4ccccc4Cl)ccc3[nH]1)=NO2 [Cpd 37, 3-[5-(Chloro-phenyl)-1H-benzimidazol-2-yl]-8,8-dimethyl-1-oxa-2-aza-spiro[4.5]dec-2-ene hydrochloride]	99	5.2	–	–
Fc1cccc(F)c1-c1ccc2[nH]c(C3=NOC4(CCOCC4)C3)nc2c1 [Cpd 38, 3-[5-(2,6-Difluoro-phenyl)-1H-benzimidazol-2-yl]-1,8-dioxa-2-aza-spiro[4.5]dec-2-ene hydrochloride]	99	8.3	–	–
CC(C)(O)CCc1cc(-c2ccccc2C(F)(F)F)cc2nc(C3=NOC4(CCCCC4)C3)[nH]c12 [Cpd 43, 2-Methyl-4-[2-(1-oxa-2-aza-spiro[4.5]dec-2-en-3-yl)-6-(2-trifluoromethylphenyl)-3H-benzimidazol-4-yl]-butan-2-ol]	99	1.7	–	–
Clc1ccccc1-c1ccc2[nH]c(C3=NOC4(CCCCC4)C3)nc2c1 [Cpd 45, 3-[5-(2-Chlorophenyl)-1H-benzimidazol-2-yl]-1-oxa-2-aza-spiro[4.5]dec-2-ene hydrochloride]	97	–	–	–
Cc1c(-c2ccccc2C(F)(F)F)cc(Cl)c2[nH]c(C3=NOC4(CCCCC4)C3)nc12 [Cpd 55, 3-[7-Chloro-4-methyl-5-(2-trifluoromethylphenyl)-1H-benzimidazol-2-yl]-1-oxa-2-aza-spiro[4.5]dec-2-ene hydrochloride]	97	4.7	–	–
FC(F)(F)c1ccccc1-c1ccc2[nH]c(C3=NOC4(CCCCC4)C3)nc2n1 [Cpd 56, 2-(1-Oxa-2-aza-spiro[4.5]dec-2-en-3-yl)-5-(2-trifluoromethyl-phenyl)-1H-imidazo[4,5-b]pyridine hydrochloride]	101	4.6	–	–
FC(F)(F)c1ccccc1-c1cc2nc(C3=NOC4(CCCCC4)C3)[nH]c2cn1 [Cpd 57, 2-(1-Oxa-2-aza-spiro[4.5]dec-2-en-3-yl)-6-(2-trifluoromethyl-phenyl)-3H-imidazo[4,5-c]pyridine hydrochloride]	102	2.7	–	–

Continued by falling IC50 (canine TRPM8), values first:

inhibition at 0.2 µM (canine TRPM8) [%]	IC50 (canine TRPM8) [nM]	Compound	inhibition in vivo at 10 mg/kg [1] [%]	inhibition in vivo at 10 mg/kg [2] [%]
92	50.2	CC1(C)CCC2(CC1)CC(c1nc3cc(-c4ccccc4C(F)(F)F)cc(Cl)c3[nH]1)=NO2 [Cpd 41, 3-[7-Chloro-5-(2-trifluoromethyl-phenyl)-1H-benzimidazol-2-yl]-8,8-dimethyl-1-oxa-2-aza-spiro[4.5]dec-2-ene hydrochloride]	–	–
99	13.4	Fc1ccccc1-c1ccc2[nH]c(C3=NOC4(CCOCC4)C3)nc2c1 [Cpd 31, 3-[5-(2-Fluoro-phenyl)-1H-benzimidazol-2-yl]-1,8-dioxa-2-aza-spiro[4.5]dec-2-ene hydrochloride]	–	–
99	12.5	CC1(C)CCC2(CC1)CC(c1nc3cc(-c4ccccc4C(F)(F)F)ccc3[nH]1)=NO2 [Cpd 36, 8,8-Dimethyl-3-[5-(2-trifluoromethyl-phenyl)-1H-benzimidazol-2-yl]-1-oxa-2-aza-spiro[4.5]dec-2-ene hydrochloride]	–	–
98	11	Clc1ccccc1-c1ccc2[nH]c(C3=NOC4(CCOCC4)C3)nc2c1 [Cpd 40, 3-[5-(2-Chloro-phenyl)-1H-benzimidazol-2-yl]-1,8-dioxa-2-aza-spiro[4.5]dec-2-ene hydrochloride]	–	–
97	6.9	Cc1cc(-c2ccccc2F)cc2nc(C3=NOC4(CCCCC4)C3)[nH]c12 [Cpd 47, 3-[7-Methyl-5-(2-fluorophenyl)-1H-benzimidazol-2-yl]-1-oxa-2-aza-spiro[4.5]dec-2-ene hydrochloride]	–	–
99	6.3	CC1(C)CCC2(CC1)CC(c1nc3cc(-c4ccccc4C(F)(F)F)cc(C(F)(F)F)c3[nH]1)=NO2 [Cpd 39, 8,8-Dimethyl-3-[7-trifluoromethyl-5-(2-trifluoromethyl-phenyl)-1H-benzimidazol-2-yl]-1-oxa-2-aza-spiro[4.5]dec-2-ene hydrochloride]	–	–
101	6.1	Fc1ccccc1-c1cc(Cl)c2[nH]c(C3=NOC4(CCCCC4)C3)nc2c1 [Cpd 49, 3-[7-Chloro-5-(2-fluorophenyl)-1H-benzimidazol-2-yl]-1-oxa-2-aza-spiro[4.5]dec-2-ene methanesulfonate]	–	–
97	5.8	Cc1c(-c2ccccc2C(F)(F)F)cc(C)c2[nH]c(C3=NOC4(CCCCC4)C3)nc12 [Cpd 54, 3-[4,7-Dimethyl-5-(2-trifluoromethylphenyl)-1H-benzimidazol-2-yl]-1-oxa-2-aza-spiro[4.5]dec-2-ene hydrochloride]	–	–
100	4.9	Cc1cc(-c2ccccc2C(F)(F)F)cc2nc(C3=NOC4(CCOCC4)C3)[nH]c12 [Cpd 32, 3-[7-Methyl-5-(2-trifluoromethyl-phenyl)-1H-benzimidazol-2-yl]-1,8-dioxa-2-aza-spiro[4.5]dec-2-ene hydrochloride]	–	–
97	3.9	Cc1cc(-c2c(F)cccc2F)cc2nc(C3=NOC4(CCCCC4)C3)[nH]c12 [Cpd 48, 3-[7-Methyl-5-(2,6-difluorophenyl)-1H-benzimidazol-2-yl]-1-oxa-2-aza-spiro[4.5]dec-2-ene hydrochloride]	–	–
100	2.1	Fc1cccc(F)c1-c1cc(Cl)c2[nH]c(C3=NOC4(CCCCC4)C3)nc2c1 [Cpd 44, 3-[7-Chloro-5-(2,6-difluorophenyl)-1H-benzimidazol-2-yl]-1-oxa-2-aza-spiro[4.5]dec-2-ene methanesulfonate]	–	–
101	2	FC(F)(F)c1ccccc1-c1cnc2[nH]c(C3=NOC4(CCCCC4)C3)nc2c1 [Cpd 58, 2-(1-Oxa-2-aza-spiro[4.5]dec-2-en-3-yl)-6-(2-trifluoromethyl-phenyl)-3H-imidazo[4,5-b]pyridine hydrochloride]	–	–
101	1.9	FC(F)(F)Oc1ccccc1-c1cc(Cl)c2[nH]c(C3=NOC4(CCCCC4)C3)nc2c1 [Cpd 50, 3-[7-Chloro-5-(2-trifluoromethoxyphenyl)-1H-benzimidazol-2-yl]-1-oxa-2-aza-spiro[4.5]dec-2-ene methanesulfonate]	–	–
97	1.8	Cc1cc(-c2ccccc2C(F)(F)F)cc2nc(C3=NOC4(CCCCC4)C3)[nH]c12 [Cpd 46, 3-[7-Methyl-5-(2-trifluoromethylphenyl)-1H-benzimidazol-2-yl]-1-oxa-2-aza-spiro[4.5]dec-2-ene hydrochloride]	–	–
101	1.1	CC1C(c2nc3cc(-c4ccccc4C(F)(F)F)cc(C(F)(F)F)c3[nH]2)=NOC12CCCCC2 (stereo not drawn) [Cpd 28, 4-Methyl-3-[7-trifluormethyl-5-(2-trifluoromethyl-phenyl)-1H-benzimidazol-2-yl]-1-oxa-2-aza-spiro[4.5]dec-2-ene hydrochloride]	–	30
97	1	COCCCc1cc(-c2ccccc2C(F)(F)F)cc2nc(C3=NOC4(CCCCC4)C3)[nH]c12 [Cpd 52, 3-[7-(3-Methoxy-propyl)-5-(2-trifluoromethylphenyl)-1H-benzimidazol-2-yl]-1-oxa-2-aza-spiro[4.5]dec-2-ene hydrochloride]	–	–

From patent US8232409B2, “Heterocyclic benzimidazoles as TRPM8 modulators” (Janssen Pharmaceutica N.V., priority 2008, dated 2012)
